Values quoted from earlier work as cited in patent US12303506B2, “Trabectedin composition” (EXTROVIS AG, priority 2022, dated 2025).

Settings: background statement

COc1cc2c(cc1O)CCN[C@]21CS[C@@H]2c3c(OC(C)=O)c(C)c4c(c3[C@H](COC1=O)N1[C@@H]2[C@H]2c3c(cc(C)c(OC)c3O)C[C@@H]([C@@H]1O)N2C)OCO4 [Trabectedin, (1′R,6R,6aR,7R,13S,14S,16R)-5(acetyloxy)-3′,4′,6,6a,7,13,14,16-octahydro-6′,8,14-trihydroxy-7′,9-dimethoxy-4,10,23 trimethylspiro[6,16-(epithiopropanoxymethano)-7,13-imino-12H-1,3dioxolo[7,8]isoquino[3,2b][3]benzazocine-20,1′(2′H)-isoquinolin]-19-one]
aqueous solubility: limited aqueous solubility
